{"source": "patent US11939399B2", "about": "“Synthetic peptide sp4 and use thereof” (TAIAN CITY QIHANG BIOTECHNOLOGY CO., priority 2018, dated 2024)", "key": {"[1]": {"tested_on": "subcutaneous human osteosarcoma MG-63 xenograft tumor", "experiment": "Detection of human osteosarcoma MG-63 cell cycle in nude mice", "type": "in vivo", "conditions": "positive control Paclitaxel group (10 mg/kgBW twice a week)", "description": "(B) Detection of Human Osteosarcoma MG-63 Cell Cycle in Nude Mice\n1. Preparation of Single Cell Suspension of Solid Tumor\n1.1 Tumor block was washed 3 times with PBS buffer and cut into small blocks (1-2 mm), then washed 3 times with PBS, and transferred into a 50 ml centrifuge tube.\n1.2 0.25% trypsin solution was added to digested at 37′C for 20-40 min, and gently shaken once every 5 min, to separate cells. 1.3 2 to 5 ml of serum-containing medium was added to terminate the trypsin digestion.\n1.4 The suspension was stood for 2-3 min, and transferred to a new centrifuge tube, and filtered with a 200-mesh nylon mesh twice.\n1.5 The filtered suspension was centrifuged at 1000 rpm for 5 min, and removed the supernatant.\n1.6 5 ml of PBS buffer was added to centrifuge again, and removed the supernatant.\n1.7 1 to 2 ml of culture solution was added according to the amount of cells, and the cells were counted for standby.\n2. Detection of Cell Cycle\n1) The cell culture solution was collected into a centrifuge tube for standby. […]\n5) Flow cytometry detection and analysis: the red fluorescence was detected by a flow cytometer at the excitation wavelength of 488 nm, and the light scattering was detected also. […]"}, "[2]": {"experiment": "Body weight and death of tumor-bearing nude mice in the in vivo efficacy test", "design": "species or system BALB/c nude mice", "conditions": "each treatment group, 4 weeks intravenous administration", "description": "4-1. Nude mice were randomly divided into 5 groups: model group, positive control group, sp4 low-dose group, sp4 medium-dose group, and sp4 high-dose group, 6 mice each group (low-dose group: 4 mg/kgBW; medium-dose group: 8 mg/kgBW; high-dose group: 16 mg/kgBW; model group: injected with an equal volume of normal saline; positive control group: injected with paclitaxel at 10 mg/kgBW; administrated twice a week).\n4-2. after divided into groups, animals were injected via tail veins at 4:00 pm every day; mice in the model group and the administration group were respectively injected with normal saline and drugs for 4 weeks, and the paclitaxel group was administered paclitaxel twice a week.\n4-3, measured the tumor size and body weight on the day of grouping and every other day; TV=0.5*a*b^2, a represents long diameter, b represents short diameter."}, "[3]": {"experiment": "Animal acute toxicity test, maximal tolerable dose (MTD)", "type": "in vivo, ICR mice", "conditions": "for Mice weight: 700 mg/kg BW dose group", "description": "Embodiment 8 Animal Acute Toxicity Test—Maximal Tolerable Dose (MTD)\nI. Experimental Conditions: GLP\n1. Test animal: Healthy adult ICR mice, male, weight 19-20 g, n=10;\n3. Test sample preparation method;\n4. Administration route: tail vein injection in mice;\n5. Dosing volume: 0.5 ml/time;\n6. Frequency of administration: in accordance with FDA guidelines;\nAcute toxicity refers to the toxic reaction produced by a drug within a certain period of time after a single dose or multiple-dose within 24 hours. In narrow sense, a single dose toxicity study is to investigate the acute toxic reactions after a single administration of a test substance. This guideline refers to single dose toxicity study in a broad sense, which can be obtained by single or multiple dosing within 24 hours;\nII. Detection of Maximal Tolerable Dose (MTD)\nFirstly, the working solutions at three concentrations that would not cause the death of test animals were prepared, and one animal was injected via tail veins (1.5 mL, by 3 times). The first dose was 1.5 mL of working solution with 1150 mg/kgBW, which was injected to mice by 3 times via tail veins within 24 hours. On the next day, if no death was found, the remaining 9 animals were injected with the same dose via tail veins (a total of n=10); if the first animal died, the dose would be reduced."}}, "note": "Values joined by “and” are separate entries in the source; they are usually repeats but may differ in a detail not shown here. Equal values may be shown once. “Also recorded” adds a separate entry of the source. Ends that are not written are not given here.", "data": [{"compound": "CC(=O)O[C@H]1C(=O)[C@@]2(C)[C@H]([C@H](OC(=O)c3ccccc3)[C@]3(O)C[C@H](OC(=O)[C@H](O)[C@@H](NC(=O)c4ccccc4)c4ccccc4)C(C)=C1C3(C)C)[C@]1(OC(C)=O)CO[C@@H]1C[C@@H]2O", "note": "[Paclitaxel]", "values": [{"measurement": "cell cycle effect in subcutaneous human osteosarcoma xenograft tumor models", "setting": "[1]", "result": "significant G1 phase arrest"}]}, {"compound": "FLFSLIPSAISG [sp4]", "values": [{"measurement": "death in the in vivo efficacy test", "setting": "[2]", "result": "no death occurred"}, {"measurement": "weight gain of tumor-bearing nude mice vs control group", "setting": "[2]; P>0.05", "result": "not significantly different"}, {"measurement": "Mice weight", "setting": "[3]; individual mice No. 1-10, 2018 May 15", "result": "20.5 g and 20.2 g (2×) and 20.6 g and 20.7 g and 20.4 g and 20.9 g and 20.1 g and 20 g and 20.3 g"}, {"measurement": "Mice weight", "setting": "[3]; individual mice No. 1-10, 2018 May 16", "result": "20.5 g (3×) and 20.7 g and 21.3 g and 21.2 g and 20.8 g and 20.4 g (2×) and 21.5 g"}, {"measurement": "Mice weight", "setting": "[3]; individual mice No. 1-10, 2018 May 17", "result": "21.1 g (3×) and 21.7 g and 21.3 g and 21.4 g and 20.8 g (2×) and 22.2 g and 21.2 g"}, {"measurement": "Mice weight", "setting": "[3]; individual mice No. 1-10, 2018 May 18", "result": "21.5 g (3×) and 22.1 g and 21.9 g (3×) and 21.7 g and 22.7 g and 21.1 g"}, {"measurement": "Mice weight", "setting": "[3]; individual mice No. 1-10, 2018 May 19", "result": "21.9 g and 21.6 g and 22.6 g (2×) and 22.5 g (3×) and 21.8 g (2×) and 23 g"}, {"measurement": "Mice weight", "setting": "[3]; individual mice No. 1-10, 2018 May 20", "result": "22.3 g and 22.8 g (5×) and 22.4 g and 23.7 g and 22.9 g and 22.5 g"}, {"measurement": "Mice weight", "setting": "[3]; individual mice No. 1-10, 2018 May 21", "result": "22.7 g and 22.9 g (2×) and 23.5 g and 23.1 g (3×) and 24.1 g and 23.3 g and 23.4 g"}, {"measurement": "Mice weight", "setting": "[3]; individual mice No. 1-10, 2018 May 22", "result": "23.3 g and 23.5 g (2×) and 24.1 g and 23.6 g and 23.2 g and 24.8 g and 23.8 g (2×) and 23.4 g"}, {"measurement": "Mice weight", "setting": "[3]; individual mice No. 1-10, 2018 May 23", "result": "24.0 g and 24.1 g (2×) and 24.8 g and 24.2 g (2×) and 23.7 g and 25.1 g and 24.5 g and 24.4 g"}, {"measurement": "Mice weight", "setting": "[3]; individual mice No. 1-10, 2018 May 24", "result": "24.7 g (4×) and 25.2 g and 23.9 g and 25.6 g and 25.1 g and 24.8 g and 24.6 g"}, {"measurement": "Mice weight", "setting": "[3]; individual mice No. 1-10, 2018 May 25", "result": "25.3 g and 25.5 g (2×) and 25.8 g and 25.1 g (3×) and 24.8 g and 26.1 g and 24.9 g"}, {"measurement": "Mice weight", "setting": "[3]; individual mice No. 1-10, 2018 May 26", "result": "25.8 g and 25.9 g (3×) and 26.3 g and 25.6 g (2×) and 25.2 g and 26.5 g and 25.5 g"}, {"measurement": "Mice weight", "setting": "[3]; individual mice No. 1-10, 2018 May 27", "result": "26.1 g and 26.2 g (2×) and 26.8 g and 26.3 g (2×) and 26.4 g and 27.2 g and 26 g and 25.8 g"}, {"measurement": "Mice weight", "setting": "[3]; individual mice No. 1-10, 2018 May 28", "result": "27.2 g and 27.1 g and 27.3 g and 26.9 g and 26.8 g (3×) and 27.7 g and 26.4 g and 26.6 g"}, {"measurement": "Mice weight", "setting": "[3]; individual mice No. 1-10, 2018 May 29", "result": "28.1 g and 27.9 g and 28.5 g and 27.2 g and 27.6 g and 27.5 g (2×) and 28.3 g and 27.1 g (2×)"}, {"measurement": "Survival Rate %", "setting": "[3]; 700 mg/kg, 3 times/9 h, n=10", "result": 100, "unit": "%"}, {"measurement": "toxic reactions and deaths within 2 weeks after administration", "setting": "[3]; ICR mice, 700 mg/kgBW intravenous", "result": "no toxic reactions and deaths occurred; also recorded: no behavioral abnormalities and deaths were observed"}, {"measurement": "toxic reactions and deaths within 24 hours", "setting": "[3]; ICR mice, 700 mg/kgBW intravenous, three times within 24 h", "result": "no toxic reactions and deaths occurred; also recorded: no toxic reaction and death were observed"}, {"measurement": "Survival or not", "setting": "[3]; individual animals No. 1-10, 700 mg/kg, 3 times/9 h", "result": "Survival"}, {"measurement": "MTD at 336 h", "setting": "[3]; male, mouse, in vivo, iv, ICR mice, tail vein injection, administered by three times within 24 h", "result": 700, "unit": "mg/kg"}]}]}
